In ChEMBL document CHEMBL3638498, “Pharmaceutical compounds” (2014):

Target: T1, Serine/threonine-protein kinase Chk1 (Homo sapiens, UniProt O14757)
T1 sequence (O14757 whole entry): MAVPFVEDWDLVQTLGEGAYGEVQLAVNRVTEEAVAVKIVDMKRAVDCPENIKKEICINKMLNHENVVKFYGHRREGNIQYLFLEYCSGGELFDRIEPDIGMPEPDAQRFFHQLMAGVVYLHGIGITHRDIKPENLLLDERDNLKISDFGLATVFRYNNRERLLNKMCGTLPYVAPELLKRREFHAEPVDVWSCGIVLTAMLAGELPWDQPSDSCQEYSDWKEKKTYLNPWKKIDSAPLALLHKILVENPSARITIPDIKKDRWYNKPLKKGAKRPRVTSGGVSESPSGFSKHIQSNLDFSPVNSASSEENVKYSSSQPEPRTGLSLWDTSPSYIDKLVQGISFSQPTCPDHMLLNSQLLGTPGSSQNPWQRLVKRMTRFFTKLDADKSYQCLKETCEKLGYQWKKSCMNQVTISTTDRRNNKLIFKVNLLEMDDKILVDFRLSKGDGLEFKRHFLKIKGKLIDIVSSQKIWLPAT
Test: Inhibiting Assay: The compounds of the invention were tested for activity against Chk-1 kinase using the materials and protocols set out below. Reaction Buffer: Base Reaction buffer: 20 mM Hepes (pH 7.5), 10 mM MgCl2, 1 mM EGTA, 0.02% Brij35, 0.02 mg/ml BSA, 0.1 mM Na3VO4, 2 mM DTT, 1% DMSO. Required cofactors are added individually to each kinase reaction Reaction Procedure:(i) Prepare indicated substrate in freshly prepared Base Reaction Buffer(ii) Deliver any required cofactors to the substrate solution above(iii) Deliver indicated kinase into the substrate solution and gently mix(iv) Deliver compounds in DMSO into the kinase reaction mixture(v) Deliver 33P-ATP (specific activity 0.01 μCi/μl final) into the reaction mixture to initiate the reaction.(vi) Incubate kinase reaction for 120 minutes at room temperature(vii) Reactions are spotted onto P81 ion exchange paper (Whatman #3698-915)(viii) Wash filters extensively in 0.1% phosphoric acid.(ix) Measure counts in scintillation counter.
Assay type: organism-based

IC50: 0.019 µM
Compound: N#Cc1cnc(NC(=O)Nc2ccc(CCNCc3ccc(F)cc3)c(Br)c2)cn1
